Experimental findings from US20080193398A1, “Derivatives of Heptaazaphenalene, Methods for Obtaining Them, and Their Use as Protecting Agents Against Uv Radiation” (ISDIN, S.A., priority 2005, published 2008) are described below.

A short description of data set [1]: UV absorption (UV λmax and εmax) in solution. The format is physicochemical. From the text:
There follow some examples where the UV λmax and εmax have been measured according to general methods known for the person skilled in the art by way of non-restrictive illustration of the present invention.

Regarding `CC1CC(OC(=O)c2ccc(NC3=NC4=NC(Nc5ccc(C(=O)OC6CC(C)CC(C)(C)C6)cc5)=NC5=NC(Nc6ccc(C(=O)OC7CC(C)CC(C)(C)C7)cc6)=NC(=N3)N45)cc2)CC(C)(C)C1` (stereo not drawn) [Example 31, 2,5,8-tris-(4-((3,3,5-trimethylcyclohexyloxy)carbonyl)phenylamino)-1,3,4,6,7,9,9b-heptaazaphenalene], the melting point – broadly, the temperature of the solid-liquid transition – was above 275 °C. Besides, in data set [1] (DMSO), the “UV λmax” value amounted to 329 nm and the εmax worked out at 143000 M⁻¹ cm⁻¹.
Turning to `CCCCCCC(CCCC)COC(=O)c1ccc(NC2=NC3=NC(Nc4ccc(C(=O)OCC(CCCC)CCCCCC)cc4)=NC4=NC(Nc5ccc(C(=O)OCC(CCCC)CCCCCC)cc5)=NC(=N2)N34)cc1` (stereo not drawn) [Example 36, 2,5,8-tris-(4-(2-butyloctyloxycarbonyl)phenylamino)-1,3,4,6,7,9,9b-heptaazaphenalene], the melting point was in the range of 215 to 222 °C. Further, in data set [1] (CHCl3), the “UV λmax” value is listed as 326 nm and the εmax is 119000 M⁻¹ cm⁻¹.
